Results reported in patent publication US5480905A, “Benzodioxane derivatives” (Chugai Seiyaku Kabushiki Kaisha, priority 1991, dated 1996).

Biological target: T1, serotonin 1A receptor (Rattus norvegicus, UniProt P19327)
T1 construct: the cortex and hippocampal tissue were extracted from the brain; from tissue; host or cells: brain cortex and hippocampus of 7-week-old male S.D. rats, washed membrane homogenate
T1 sequence (P19327 1-422): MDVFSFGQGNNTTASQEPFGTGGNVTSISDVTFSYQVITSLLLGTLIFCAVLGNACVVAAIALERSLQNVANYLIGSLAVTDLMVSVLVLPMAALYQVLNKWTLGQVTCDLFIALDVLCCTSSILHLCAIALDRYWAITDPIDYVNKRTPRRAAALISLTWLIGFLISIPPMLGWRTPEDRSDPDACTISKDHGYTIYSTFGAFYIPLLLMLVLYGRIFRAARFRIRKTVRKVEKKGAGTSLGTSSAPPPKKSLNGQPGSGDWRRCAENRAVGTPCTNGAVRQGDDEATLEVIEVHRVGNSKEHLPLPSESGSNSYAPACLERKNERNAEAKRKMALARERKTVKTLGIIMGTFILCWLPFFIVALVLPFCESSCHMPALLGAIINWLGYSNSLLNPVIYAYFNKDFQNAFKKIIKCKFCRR
Assay: Serotonin 1A receptor binding experiment (3H-8-OH-DPAT)
Conditions: rat cortex and hippocampal tissue; 0.5 nM 3H-8-OH-DPAT; IC50 in M; read-out: -logIC50 5-HT1A (converted)
Protocol: Affinity for intracerebral serotonin 1A and serotonin 2 receptor was checked in accordance with the method of Hall et al. (J. Neurochem., 44, 1685-1695, 1985) and the method of Leysen et al. (Mol. Pharmacol., 21, 301-314, 1982).
Stated more specifically, the cortex and hippocampal tissue were extracted from the brain of 7-wk old S.D. line male rats, mixed with 20 volumes of Tris-HCl buffer (50 mM, pH 7.7) and homogenized with a Teflon homogenizer. Thereafter, the homogenate was centrifuged at 39800×g for 20 min and the supernatant was discarded. Forty volumes of a buffer were added to the precipitate and the mixture was homogenized with a Polytron homogenizer, with the homogenate being centrifuged under the same condition as set forth above. The same procedure was repeated two more times and the final precipitate was homogenized with 40 volumes of a buffer; thereafter, the homogenate was stored at least overnight at -80° C. On the day when binding experiments were to be conducted, the homogenate was thawed at room temperature and incubated at 37° C. for 20 min to remove the endogenous serotonin.
Thereafter, centrifugation was conducted at 39800×g for 20 min and 40 volumes of a buffer were added to the precipitate, followed by homogenization. This procedure was repeated three times; to the final precipitate, a buffer was added in 65 volumes for the case of serotonin 1A receptor and in 80 volumes for the case of serotonin 2 receptor and the mixture was homogenized in preparation for the binding experiments that are described below. All procedures of experimentation except storage in a frozen state and thawing at room temperature were conducted at 4° C. or below.
A reaction solution containing 0.5 nM (final concentration) of 3H-8-hydroxy-2-(di-n-propylamino)tetralin (8-OH-DPAT), […] and 500 μl of brain homogenate in 1.0 ml (final volume) of a buffer was incubated at 25° C. for 30 min. Thereafter, the reaction solution was filtered by rapid passage through a glass filler. The filter was washed rapidly with an ice-cooled buffer (3 ml) three times, put into a scintillation vial together with a scintillation cocktail, and left to stand overnight at 4° C. On the next day, the vial was agitated well and measurements were conducted with a scintillation counter. To determine the amount of specific binding, the amount of binding in the presence of excess unlabeled serotonin (10 μM) was subtracted from the total amount of binding. As an index for the affinity of a test compound for either receptor, the concentration at which the specific binding of ^3 H-DPAT was inhibited by 50% (IC50, M) was determined using computer software EBDA/LIGAND (Biosoft).

Row | Compound | IC50
1 | O=C(NCCN1CCN(c2ncccn2)CC1)C12CC3CC(CC(C3)C1)C2 [WY-50324, reference compound] | 1.26 nM
2 | Cc1cccc2c1OC(CNCCNC(=O)C13CC4CC(CC(C4)C1)C3)CO2 (centres unmarked) [Compound 1, N-{[2-(8-methyl-1,4-benzodioxan-2-ylmethyl)amino]ethyl}tricyclo[3,3,1,1^3, ^7]decane-1-carboxyamide] | 1.17 nM
